Activity calls are given as the source filed them.
Columns and labels:
HEK293 [1] = experiment: NOD1 signaling inhibitors, primary screen, cell-based, luminescence, uHTS (AID 1578); format: functional; conditions: Homo sapiens
HEK293 [2] = experiment: cells; format: functional, cell-based; conditions: Homo sapiens
HEK293 [3] = experiment: cells; format: functional, cell-based; conditions: Homo sapiens; remark: listed apart in the source
[4] = molecular target: Nucleotide-binding oligomerization domain-containing protein 2 (Homo sapiens, UniProt Q9HC29); experiment: NOD2 signaling inhibitors, cell-based, luminescence, uHTS, HEK293 (AID 1566); format: functional
HEK293 [5] = experiment: NOD2 signaling inhibitors in MDP-stimulated cells, cell-based, uHTS, luminescence (AID 2001); format: functional; conditions: Homo sapiens
HEK293 [6] = experiment: cells; format: functional, cell-based; conditions: Homo sapiens; remark: listed apart in the source
[7] = molecular target: Eukaryotic translation initiation factor 4H (Homo sapiens, UniProt Q15056); experiment: human eIF4H binding inhibitors, primary screen, translation initiation inhibitor project, biochemical, uHTS, fluorescence polarization (AID 2012)
[8] = molecular target: Polyadenylate-binding protein 1 (Homo sapiens, UniProt P11940); experiment: PABP poly(A) RNA binding inhibitors, primary screen, biochemical, fluorescence polarization, uHTS (AID 2014)
[9] = molecular target: T1, Carboxy-terminal domain RNA polymerase II polypeptide A small phosphatase 1 (Homo sapiens, UniProt Q9GZU7); experiment: inhibitors of CTDSP1, concentration-response testing, biochemical assay, absorbance-based, actives from ultra-high-throughput screening (AID 540297); format: functional
T1 sequence (Q9GZU7 whole entry): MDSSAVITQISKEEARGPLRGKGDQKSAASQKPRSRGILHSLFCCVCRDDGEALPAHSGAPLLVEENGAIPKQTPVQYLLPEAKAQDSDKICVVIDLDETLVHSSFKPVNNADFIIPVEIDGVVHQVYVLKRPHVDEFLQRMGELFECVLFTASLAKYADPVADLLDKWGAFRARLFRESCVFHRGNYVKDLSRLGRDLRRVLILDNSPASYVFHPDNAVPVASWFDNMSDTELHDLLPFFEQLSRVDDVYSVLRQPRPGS

[10] = M. tuberculosis growth inhibition, HTS (AID 449762); format: functional
[11] = molecular target: DNA dC->dU-editing enzyme APOBEC-3A (Homo sapiens, UniProt P31941); experiment: APOBEC3A DNA deaminase inhibitors, dose response, biochemical (AID 504722); format: functional
[12] = molecular target: DNA dC->dU-editing enzyme APOBEC-3G (Homo sapiens, UniProt Q9HC16); experiment: Dose Response confirmation of small molecule APOBEC3G DNA Deaminase Inhibitors via a fluorescence-based single-stranded DNA deaminase assay. [Related pubchem assays (depositor defined):AID493012, AID493028]; format: functional
[13] = molecular target: T2, Rac GTPase-activating protein 1 (Homo sapiens, UniProt Q9H0H5); experiment: MgcRacGAP GTPase-activating activity inhibitors, confirmation, biochemical, ADP Hunter fluorescence, primary and confirmatory (AID 624330); format: functional
T2 sequence (Q9H0H5 whole entry): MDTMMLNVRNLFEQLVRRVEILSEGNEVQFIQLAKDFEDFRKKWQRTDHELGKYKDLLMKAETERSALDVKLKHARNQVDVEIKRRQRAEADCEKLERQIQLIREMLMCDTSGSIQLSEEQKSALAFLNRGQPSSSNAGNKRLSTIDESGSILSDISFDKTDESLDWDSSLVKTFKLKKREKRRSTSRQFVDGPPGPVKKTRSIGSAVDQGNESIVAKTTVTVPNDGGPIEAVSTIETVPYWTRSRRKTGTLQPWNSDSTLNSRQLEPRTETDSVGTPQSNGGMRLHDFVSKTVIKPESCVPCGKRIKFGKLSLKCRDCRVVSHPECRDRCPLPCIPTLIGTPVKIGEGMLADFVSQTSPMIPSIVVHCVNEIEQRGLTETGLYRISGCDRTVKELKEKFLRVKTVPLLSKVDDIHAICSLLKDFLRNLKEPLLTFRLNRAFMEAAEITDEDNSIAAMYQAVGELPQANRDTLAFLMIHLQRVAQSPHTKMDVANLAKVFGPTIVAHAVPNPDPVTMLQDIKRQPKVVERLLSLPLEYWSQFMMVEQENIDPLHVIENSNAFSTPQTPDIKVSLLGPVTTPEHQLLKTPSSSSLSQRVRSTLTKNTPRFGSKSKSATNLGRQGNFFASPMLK

[14] = molecular target: T3, Short transient receptor potential channel 4 (Mus musculus, UniProt Q9QUQ5); experiment: TRPC4 positive allosteric modulators, dose response, cell-based, HEK293 TRPC4/mu-opioid, Fluo-4 calcium, EC20 DAMGO (AID 434941); format: functional
T3 sequence (Q9QUQ5 whole entry): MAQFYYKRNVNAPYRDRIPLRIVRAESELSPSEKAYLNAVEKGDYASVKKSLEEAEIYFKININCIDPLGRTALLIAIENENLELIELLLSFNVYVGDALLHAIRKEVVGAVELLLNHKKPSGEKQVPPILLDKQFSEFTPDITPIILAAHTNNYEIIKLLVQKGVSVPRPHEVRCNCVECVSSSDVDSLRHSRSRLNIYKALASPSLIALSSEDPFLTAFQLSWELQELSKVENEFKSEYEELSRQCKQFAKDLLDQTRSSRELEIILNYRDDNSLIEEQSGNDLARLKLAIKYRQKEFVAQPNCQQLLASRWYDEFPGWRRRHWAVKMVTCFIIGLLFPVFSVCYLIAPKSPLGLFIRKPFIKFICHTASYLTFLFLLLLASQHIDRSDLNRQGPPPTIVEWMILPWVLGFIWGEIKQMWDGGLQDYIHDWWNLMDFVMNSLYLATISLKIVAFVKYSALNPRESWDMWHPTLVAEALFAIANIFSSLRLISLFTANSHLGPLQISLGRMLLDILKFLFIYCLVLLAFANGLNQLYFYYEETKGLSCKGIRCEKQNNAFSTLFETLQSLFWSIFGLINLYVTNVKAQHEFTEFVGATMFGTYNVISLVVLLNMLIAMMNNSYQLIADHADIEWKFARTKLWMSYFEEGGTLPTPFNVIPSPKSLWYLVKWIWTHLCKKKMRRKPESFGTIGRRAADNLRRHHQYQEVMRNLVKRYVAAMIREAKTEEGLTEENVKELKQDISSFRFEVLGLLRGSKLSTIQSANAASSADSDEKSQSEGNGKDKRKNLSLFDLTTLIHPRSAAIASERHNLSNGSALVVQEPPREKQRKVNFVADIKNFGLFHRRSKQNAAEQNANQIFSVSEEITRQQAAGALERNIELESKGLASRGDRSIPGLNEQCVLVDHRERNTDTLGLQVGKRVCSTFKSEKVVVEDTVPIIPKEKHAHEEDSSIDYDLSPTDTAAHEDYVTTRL

[15] = molecular target: T3, Short transient receptor potential channel 4; experiment: mouse TRPC4 channel activators, dose response, cell-based, HEK293 TRPC4/mu-opioid, Fluo-4 calcium (AID 434937); format: functional
[16] = molecular target: Eukaryotic translation initiation factor 4E (Mus musculus, UniProt P63073); experiment: eIF4E–eIF4G protein interaction inhibitors, dose response, biochemical, TR-FRET (AID 855); format: functional;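 note: potency for disrupting eIF4E binding to eIF4GI seen as loss of FRET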
Trypsin = Trypsin (Sus scrofa, UniProt P00761); experiment: porcine trypsin inhibitors, dose response, selectivity assay for Rce1 protease inhibitor project, biochemical, quenched peptide fluorescence, cherry-pick (AID 488789)
[17] = A cytotoxicity screen of small molecule inhibitors of the PhoP region in Salmonella typhi identified in the primary screen. [Related pubchem assays: 1850, 1864, 1985 ]; format: functional
[18] = system: Streptococcus sp. 'group A'; experiment: growth inhibition of control SK(-) GAS strain, dose response, counter-screen for streptokinase expression inhibitor project, luminescence, kanamycin, BacTiterGlo, confirmation (AID 1900); format: functional, organism-based
Streptococcus = experiment: Group A Streptococcus viability loss, dose response, counter-screen for streptokinase expression inhibitor project, luminescence, BacTiterGlo (AID 1915); format: functional, organism-based;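 note: potency for reduction of bacterial viability or growth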
Beta-galactosidase = Beta-galactosidase (Escherichia coli, UniProt Q8VNN2); experiment: beta-galactosidase enzyme inhibitors and activators, dose response, artefact control for CCR6 antagonist project, biochemical, E. coli enzyme, set 3 (AID 504712); format: functional
[19] = molecular target: T4, Eukaryotic translation initiation factor 2-alpha kinase 3 (Homo sapiens, UniProt Q9NZJ5); experiment: Dose response cell-based high-throughput screening assay to measure PERK inhibition. [Related pubchem assays: 1416 ]; format: functional
T4 sequence (Q9NZJ5 whole entry): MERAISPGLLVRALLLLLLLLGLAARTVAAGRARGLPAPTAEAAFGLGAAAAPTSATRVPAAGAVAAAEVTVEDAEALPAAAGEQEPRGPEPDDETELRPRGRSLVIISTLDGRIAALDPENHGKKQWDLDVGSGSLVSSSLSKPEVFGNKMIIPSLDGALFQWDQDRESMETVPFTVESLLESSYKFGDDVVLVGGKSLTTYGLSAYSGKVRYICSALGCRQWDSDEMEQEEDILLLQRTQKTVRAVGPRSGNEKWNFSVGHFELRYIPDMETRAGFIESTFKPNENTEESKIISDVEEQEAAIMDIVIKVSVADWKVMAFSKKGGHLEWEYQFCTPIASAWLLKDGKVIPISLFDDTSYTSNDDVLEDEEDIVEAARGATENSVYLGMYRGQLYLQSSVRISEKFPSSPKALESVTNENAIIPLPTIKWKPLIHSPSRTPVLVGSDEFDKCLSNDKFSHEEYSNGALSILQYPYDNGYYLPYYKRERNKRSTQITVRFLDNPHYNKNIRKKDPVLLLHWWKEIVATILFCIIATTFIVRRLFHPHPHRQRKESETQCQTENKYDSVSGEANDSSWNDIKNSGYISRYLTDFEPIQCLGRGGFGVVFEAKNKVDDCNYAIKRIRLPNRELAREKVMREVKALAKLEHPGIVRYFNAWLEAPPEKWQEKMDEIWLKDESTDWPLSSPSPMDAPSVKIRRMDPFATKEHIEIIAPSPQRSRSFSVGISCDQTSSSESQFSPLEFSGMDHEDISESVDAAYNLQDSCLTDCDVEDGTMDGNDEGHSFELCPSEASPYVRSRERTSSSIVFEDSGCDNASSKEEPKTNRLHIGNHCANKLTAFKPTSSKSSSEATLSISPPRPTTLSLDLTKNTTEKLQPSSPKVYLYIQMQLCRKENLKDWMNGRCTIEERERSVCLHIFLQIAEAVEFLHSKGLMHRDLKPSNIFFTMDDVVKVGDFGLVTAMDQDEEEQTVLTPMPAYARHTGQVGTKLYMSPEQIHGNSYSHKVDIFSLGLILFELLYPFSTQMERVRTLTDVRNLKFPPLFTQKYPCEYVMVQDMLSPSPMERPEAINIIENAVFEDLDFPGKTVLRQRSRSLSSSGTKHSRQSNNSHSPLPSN

[20] = molecular target: T4, Eukaryotic translation initiation factor 2-alpha kinase 3; experiment: Counterscreen assay for PERK inhibitors: Dose response cell-based high throughput screening assay to measure inhibition of PERK at 6 hours. [Related pubchem assays: 1522, 1416 ]; format: functional
[21] = inhibitors of intracellular T. cruzi replication, confirmation, NIH3T3 host cells, beta-gal luminescence (AID 2044); format: functional, cell-based;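 note: intracellular parasites grown in NIH/3T3 mouse fibroblasts as host cells; luminescent beta-galactosidase reporter signal from transgenic T. cruzi replicating inside host cells; inhibitors lower the luminescence signal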
[22] = cytotoxicity toward NIH3T3 fibroblasts, dose response, counter-screen, cell-based, ATP luminescence, mouse fibroblasts (AID 2010); format: functional;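 note: cells exposed to compound for about 90 hours before reading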
Hexokinase = Hexokinase (Trypanosoma brucei, UniProt Q38C41); experiment: Confirmation assay for inhibitors of Trypanosoma brucei hexokinase 1-Analogue-first series. [Related pubchem assays (depositor defined):AID1430, AID1632, AID2516, AID2560, AID2579, AID2600, AID449725, AID492951]; format: functional
Chain of Hexokinase (Q38C41 whole entry): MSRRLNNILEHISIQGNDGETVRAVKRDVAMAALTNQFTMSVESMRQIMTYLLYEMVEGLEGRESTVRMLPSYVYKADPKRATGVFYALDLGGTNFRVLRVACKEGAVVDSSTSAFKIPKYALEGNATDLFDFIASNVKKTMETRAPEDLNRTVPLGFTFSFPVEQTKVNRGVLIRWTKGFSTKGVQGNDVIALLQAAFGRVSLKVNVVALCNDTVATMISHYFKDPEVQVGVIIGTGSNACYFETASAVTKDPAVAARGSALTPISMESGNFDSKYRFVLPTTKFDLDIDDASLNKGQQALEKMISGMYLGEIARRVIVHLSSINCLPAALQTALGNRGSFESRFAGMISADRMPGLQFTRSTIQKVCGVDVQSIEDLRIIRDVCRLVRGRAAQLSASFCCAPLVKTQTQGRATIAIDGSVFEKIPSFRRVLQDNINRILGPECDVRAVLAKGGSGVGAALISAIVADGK

Chain of DNA dC->dU-editing enzyme APOBEC-3A (P31941 whole entry): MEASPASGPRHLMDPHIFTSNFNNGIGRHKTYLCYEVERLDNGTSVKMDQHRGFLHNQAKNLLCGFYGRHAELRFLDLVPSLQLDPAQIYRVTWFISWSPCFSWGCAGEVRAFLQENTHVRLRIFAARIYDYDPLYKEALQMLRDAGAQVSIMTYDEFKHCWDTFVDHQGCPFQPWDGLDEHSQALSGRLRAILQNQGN
Chain of Beta-galactosidase (Q8VNN2 whole entry): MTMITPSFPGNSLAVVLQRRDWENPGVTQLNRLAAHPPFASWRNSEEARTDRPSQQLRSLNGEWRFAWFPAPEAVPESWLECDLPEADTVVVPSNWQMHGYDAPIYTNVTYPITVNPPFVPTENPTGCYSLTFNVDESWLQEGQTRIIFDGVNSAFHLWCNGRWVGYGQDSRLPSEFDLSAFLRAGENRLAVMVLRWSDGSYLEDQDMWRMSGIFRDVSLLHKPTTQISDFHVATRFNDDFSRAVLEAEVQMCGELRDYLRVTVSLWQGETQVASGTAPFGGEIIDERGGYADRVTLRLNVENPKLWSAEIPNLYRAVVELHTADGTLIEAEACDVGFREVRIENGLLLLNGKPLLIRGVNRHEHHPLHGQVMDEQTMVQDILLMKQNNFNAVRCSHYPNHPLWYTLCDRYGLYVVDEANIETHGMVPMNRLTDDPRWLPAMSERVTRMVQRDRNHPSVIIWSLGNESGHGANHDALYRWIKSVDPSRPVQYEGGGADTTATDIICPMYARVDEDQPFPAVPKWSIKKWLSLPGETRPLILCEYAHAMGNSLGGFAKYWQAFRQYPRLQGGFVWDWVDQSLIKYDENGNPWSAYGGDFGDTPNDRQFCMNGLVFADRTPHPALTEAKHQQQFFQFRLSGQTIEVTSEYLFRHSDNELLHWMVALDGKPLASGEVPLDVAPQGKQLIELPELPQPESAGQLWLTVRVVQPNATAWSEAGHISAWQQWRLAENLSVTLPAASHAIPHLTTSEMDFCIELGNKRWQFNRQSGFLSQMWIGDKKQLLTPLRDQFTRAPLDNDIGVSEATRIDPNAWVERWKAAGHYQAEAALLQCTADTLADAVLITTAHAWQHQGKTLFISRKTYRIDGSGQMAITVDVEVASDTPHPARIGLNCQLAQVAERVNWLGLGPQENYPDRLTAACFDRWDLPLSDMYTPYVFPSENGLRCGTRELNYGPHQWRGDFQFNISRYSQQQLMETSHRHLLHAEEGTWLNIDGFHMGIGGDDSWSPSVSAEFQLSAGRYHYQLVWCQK
Chain of DNA dC->dU-editing enzyme APOBEC-3G (Q9HC16 whole entry): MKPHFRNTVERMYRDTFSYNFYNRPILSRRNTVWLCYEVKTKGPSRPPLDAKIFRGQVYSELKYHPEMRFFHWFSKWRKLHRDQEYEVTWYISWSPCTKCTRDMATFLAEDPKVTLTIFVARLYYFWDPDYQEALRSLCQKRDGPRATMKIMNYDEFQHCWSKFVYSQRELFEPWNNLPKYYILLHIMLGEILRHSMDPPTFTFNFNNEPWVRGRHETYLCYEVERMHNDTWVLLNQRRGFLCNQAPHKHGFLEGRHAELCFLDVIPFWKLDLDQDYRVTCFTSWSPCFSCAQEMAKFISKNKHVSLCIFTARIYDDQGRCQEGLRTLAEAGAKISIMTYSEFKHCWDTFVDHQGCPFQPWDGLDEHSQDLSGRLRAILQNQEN
Chain of Eukaryotic translation initiation factor 4E (P63073 whole entry): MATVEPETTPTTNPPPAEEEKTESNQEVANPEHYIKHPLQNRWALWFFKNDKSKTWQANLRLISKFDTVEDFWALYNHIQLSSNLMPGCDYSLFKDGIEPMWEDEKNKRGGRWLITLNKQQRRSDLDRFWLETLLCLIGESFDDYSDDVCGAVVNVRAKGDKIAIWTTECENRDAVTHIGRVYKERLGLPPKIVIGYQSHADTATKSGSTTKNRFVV
Chain of Nucleotide-binding oligomerization domain-containing protein 2 (Q9HC29 whole entry, the tested form may be a part): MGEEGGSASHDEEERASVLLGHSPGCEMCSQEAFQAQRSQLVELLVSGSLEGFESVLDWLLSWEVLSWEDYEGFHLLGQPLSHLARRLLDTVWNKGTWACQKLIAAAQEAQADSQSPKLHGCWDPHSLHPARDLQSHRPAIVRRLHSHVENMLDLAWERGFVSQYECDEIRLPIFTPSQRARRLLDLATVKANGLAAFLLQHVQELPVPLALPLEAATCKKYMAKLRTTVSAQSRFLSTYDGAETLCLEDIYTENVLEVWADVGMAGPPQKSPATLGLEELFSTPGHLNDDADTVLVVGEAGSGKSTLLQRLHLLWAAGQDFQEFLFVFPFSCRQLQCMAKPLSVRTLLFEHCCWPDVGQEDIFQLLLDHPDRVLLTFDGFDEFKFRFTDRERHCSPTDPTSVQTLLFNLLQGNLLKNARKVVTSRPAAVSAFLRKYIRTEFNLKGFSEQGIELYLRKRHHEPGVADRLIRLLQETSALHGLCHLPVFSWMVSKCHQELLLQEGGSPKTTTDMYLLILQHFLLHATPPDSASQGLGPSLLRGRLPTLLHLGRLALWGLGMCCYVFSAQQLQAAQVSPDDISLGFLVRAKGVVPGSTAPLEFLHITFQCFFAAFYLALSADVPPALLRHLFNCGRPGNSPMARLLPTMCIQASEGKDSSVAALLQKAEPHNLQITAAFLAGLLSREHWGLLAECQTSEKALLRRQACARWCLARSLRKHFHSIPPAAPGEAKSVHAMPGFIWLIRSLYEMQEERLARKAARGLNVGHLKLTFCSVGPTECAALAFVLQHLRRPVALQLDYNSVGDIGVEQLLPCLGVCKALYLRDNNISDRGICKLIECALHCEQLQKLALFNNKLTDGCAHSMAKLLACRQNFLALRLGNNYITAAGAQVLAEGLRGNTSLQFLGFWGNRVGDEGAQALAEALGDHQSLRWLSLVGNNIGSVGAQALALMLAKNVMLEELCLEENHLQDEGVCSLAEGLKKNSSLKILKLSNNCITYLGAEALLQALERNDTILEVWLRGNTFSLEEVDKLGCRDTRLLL
Chain of Trypsin (P00761 whole entry): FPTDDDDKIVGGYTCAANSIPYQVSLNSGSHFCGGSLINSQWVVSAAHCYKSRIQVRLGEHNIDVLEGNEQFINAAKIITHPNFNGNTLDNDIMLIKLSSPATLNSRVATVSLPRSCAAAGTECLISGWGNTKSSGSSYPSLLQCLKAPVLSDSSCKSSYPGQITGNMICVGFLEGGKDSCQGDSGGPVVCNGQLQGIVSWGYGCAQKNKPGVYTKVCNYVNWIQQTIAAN
Chain of Polyadenylate-binding protein 1 (P11940 whole entry, the tested form may be a part): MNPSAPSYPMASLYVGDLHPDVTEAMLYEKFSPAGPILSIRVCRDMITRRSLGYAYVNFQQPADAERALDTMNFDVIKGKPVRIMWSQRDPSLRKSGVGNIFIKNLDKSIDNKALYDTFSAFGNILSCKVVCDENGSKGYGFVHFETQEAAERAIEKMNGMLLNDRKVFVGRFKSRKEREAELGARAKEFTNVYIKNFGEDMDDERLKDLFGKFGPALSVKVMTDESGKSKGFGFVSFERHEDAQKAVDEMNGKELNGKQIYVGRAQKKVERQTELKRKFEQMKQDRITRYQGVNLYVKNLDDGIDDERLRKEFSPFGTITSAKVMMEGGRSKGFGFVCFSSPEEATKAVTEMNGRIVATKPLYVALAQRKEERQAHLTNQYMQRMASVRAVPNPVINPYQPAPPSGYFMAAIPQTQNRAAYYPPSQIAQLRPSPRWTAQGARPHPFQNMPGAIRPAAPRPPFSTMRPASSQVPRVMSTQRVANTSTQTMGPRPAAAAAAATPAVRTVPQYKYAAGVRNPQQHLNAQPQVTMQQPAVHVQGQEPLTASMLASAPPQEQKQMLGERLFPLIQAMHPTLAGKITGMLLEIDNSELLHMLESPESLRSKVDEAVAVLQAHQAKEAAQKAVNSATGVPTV

## CCOc1ccc(-n2c(C)c(C(C)=O)c3cc(O)ccc32)cc1
HEK293 [1]
  EC50: > 20 µM (inactive)
HEK293 [2]
  IC50: 0.451 µM (active)
HEK293 [3]
  IC50: > 20 µM (inactive)
[4]
  EC50: > 20 µM (inactive)
HEK293 [5]
  IC50: 0.875 µM (active)
HEK293 [6]
  IC50: > 20 µM (inactive)

## O=S(=O)([O-])CCC[n+]1ccc(Oc2ccccc2)cc1
[7]
  IC50: 48.3 µM (active)
[8]
  IC50: 4.32 µM (active)
[9]
  IC50: 12.9 µM (active)

## Cc1nn(-c2ccccc2)c(S)c1/C=N/CCC/N=C/c1c(C)nn(-c2ccccc2)c1S
[10]
  IC50: > 100 µM (active)
[11]
  IC50: > 100 µM (inactive)
[12]
  IC50: 5.47 µM (active)

## COc1cccc(/C=N/n2c(S)nnc2-c2[nH]nc3c2CCC3)c1O
[11]
  IC50: > 100 µM (inactive)
[12]
  IC50: 2.48 µM (active)
[13]
  IC50: 53.9 µM (active)

## CN(C)CCCOc1cccc(Cl)c1
[14]
  EC50: 0.03 µM (active)
[15]
  EC50: 0.06 µM (active)

## O=C1c2ccccc2C(=O)N1Cc1nc2ccccc2c(=O)n1-c1ccccn1
[16]
  IC50: > 64 µM (inactive)

## COc1nc(-c2ccccc2)ccc1-c1noc(-c2ccccc2F)n1
Trypsin
  AC50: > 100 µM (inactive)

## O=C(NC1CCCCCCC1)c1ccc2c(c1)OCO2
[16]
  IC50: > 64 µM (inactive)

## CCN(CC(=O)NC(C)(C)C)C(=O)COc1c(Cl)cc(Cl)c2ccc(C)nc12
[17]
  EC50: > 50 µM (active)
[18]
  EC50: 1.45 µM (active)
Streptococcus
  EC50: 6.5 µM (active)
Beta-galactosidase
  IC50: > 66.6 µM (inactive)

## CCCc1nc2ccccc2c(=O)n1N
[19]
  EC50: > 55.7 µM (not active)
[20]
  EC50: > 55.7 µM (not active)

## CC1Cc2ccccc2N1C(=O)CSc1nc2c(c(=O)n(C)c(=O)n2C)n1Cc1ccccc1 (stereo not given)
[21]
  EC50: 4.07 µM (active)
[22]
  EC50: > 60 µM (not active)
[14]
  EC50: 0.15 µM (active)
[15]
  EC50: 2.11 µM (active)

## CC(C)Cc1nnc(NC(=O)c2cc([N+](=O)[O-])ccc2N2CCOCC2)s1
Beta-galactosidase
  IC50: > 66.6 µM (inactive)

## Cc1ccc2c(c1C)NC(C)CC2C (stereo not given)
[19]
  EC50: > 55.7 µM (not active)
[20]
  EC50: > 55.7 µM (not active)

## Cc1cc(OCC(=O)Nc2ccncc2)cc(C)c1Cl
HEK293 [1]
  EC50: 2.46 µM (active)
HEK293 [2]
  IC50: 4.41 µM (active)
HEK293 [3]
  IC50: 12.3 µM (active)
[4]
  EC50: 8.48 µM (active)
HEK293 [5]
  IC50: 6.09 µM (active)
HEK293 [6]
  IC50: > 20 µM (inactive)

## CCOC(=O)Cn1sc2ccccc2c1=O
Hexokinase
  IC50: 12.5 µM (active)
